Assay results from PubChem BioAssay AID1963962 (Molecular Pharmacology Branch, DTP, NCI, 2024).

System: 967376-340-R-J2-PDC multicell spheroid viability
Experiment: Anticancer human tumor 967376-340-R-J2-PDC patient-derived colon adenocarcinoma cell line growth inhibition [PI3K]
Conditions: for IC50: curve of first compound; for viability, T/C: stronger effect = lower value
How it was run: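 Complex 3D spheroids (cancer cells + endothelial HUVEC + mesenchymal stem cells); drug pairs of targeted agent x inavolisib/alpelisib/duvelisib/copanlisib; half-log series from ~Cmax, max 10 microM if Cmax unknown; endpoint viability.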
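Also: spheroids exposed to agents for 7 days before read-out.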
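For viability, T/C in this document: luminescence used as surrogate of cell viability.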

In the case of CC1(C)CCC(Nc2ncc(C(F)(F)F)c(-c3c[nH]c4c(P(C)(C)=O)c(C#N)ccc34)n2)CN1 (configuration not stated) + COc1c(OCCCN2CCOCC2)ccc2c3n(c(=NC(=O)c4cnc(N)nc4)nc12)CCN3, the IC50 (second compound 0.00316 µM) is reported as > 10 µM, the IC50 (second compound 0.01 µM) is reported as 9.47 µM and the IC50 (second compound 0.0316 µM) is reported as 3.06 µM. The IC50 (second compound 0.1 µM) was 0.196 µM, the IC50 (second compound 0.316 µM) was < 0.0316 µM and the IC50 (second compound 1 µM) was < 0.0316 µM. It also gave a viability, T/C (second compound 0.00316 µM, first compound 0.0316 µM) of 84.5%, a viability, T/C (second compound 0.00316 µM, first compound 0.1 µM) of 81.8% and a viability, T/C (second compound 0.00316 µM, first compound 0.316 µM) of 80.2%. The viability, T/C (second compound 0.00316 µM, first compound 1 µM) was 80%, the viability, T/C (second compound 0.00316 µM, first compound 3.16 µM) was 66.2% and the viability, T/C (second compound 0.00316 µM, first compound 10 µM) was 59.6%. It also gave a viability, T/C (second compound 0.01 µM, first compound 0.0316 µM) of 79.7%, a viability, T/C (second compound 0.01 µM, first compound 0.1 µM) of 77.4% and a viability, T/C (second compound 0.01 µM, first compound 0.316 µM) of 75.2%. It also gave a viability, T/C (second compound 0.01 µM, first compound 1 µM) of 75.5%, a viability, T/C (second compound 0.01 µM, first compound 3.16 µM) of 61.9% and a viability, T/C (second compound 0.01 µM, first compound 10 µM) of 49.4%. The viability, T/C (second compound 0.0316 µM, first compound 0.0316 µM) was 69.9%, the viability, T/C (second compound 0.0316 µM, first compound 0.1 µM) was 84% and the viability, T/C (second compound 0.0316 µM, first compound 0.316 µM) was 73.8%. For the same compound, the viability, T/C (second compound 0.0316 µM, first compound 1 µM) was 66.5%, the viability, T/C (second compound 0.0316 µM, first compound 3.16 µM) was 49.4% and the viability, T/C (second compound 0.0316 µM, first compound 10 µM) was 45.9%. It also gave a viability, T/C (second compound 0.1 µM, first compound 0.0316 µM) of 72.3%, a viability, T/C (second compound 0.1 µM, first compound 0.1 µM) of 47.6% and a viability, T/C (second compound 0.1 µM, first compound 0.316 µM) of 54.1%. The viability, T/C (second compound 0.1 µM, first compound 1 µM) was 45.5%, the viability, T/C (second compound 0.1 µM, first compound 3.16 µM) was 43.7% and the viability, T/C (second compound 0.1 µM, first compound 10 µM) was 36.5%. It also gave a viability, T/C (second compound 0.316 µM, first compound 0.0316 µM) of 49.4%, a viability, T/C (second compound 0.316 µM, first compound 0.1 µM) of 45% and a viability, T/C (second compound 0.316 µM, first compound 0.316 µM) of 37.3%. For the same compound, the viability, T/C (second compound 0.316 µM, first compound 1 µM) was 38.4%, the viability, T/C (second compound 0.316 µM, first compound 3.16 µM) was 36.6% and the viability, T/C (second compound 0.316 µM, first compound 10 µM) was 22.3%. It also gave a viability, T/C (second compound 1 µM, first compound 0.0316 µM) of 32%, a viability, T/C (second compound 1 µM, first compound 0.1 µM) of 27.4% and a viability, T/C (second compound 1 µM, first compound 0.316 µM) of 34%. The viability, T/C (second compound 1 µM, first compound 1 µM) was 30.7%, the viability, T/C (second compound 1 µM, first compound 3.16 µM) was 27.1% and the viability, T/C (second compound 1 µM, first compound 10 µM) was 20.9%.
